Source: patent US10435399B2, “HDAC6 inhibitory heterocyclic compound” (TAKEDA PHARMACEUTICAL COMPANY LIMITED, priority 2017, dated 2019)

These molecules were tested against T1, HDAC6 enzyme (Homo sapiens, UniProt Q9UBN7) (assay: HDAC6 enzyme inhibitory activity (HDAC-Glo I/II Assay kit)). Details: 10 μM; wells without enzyme = 100% inhibition.
T1 construct: transducing full length HDAC6 gene into Sf-9 insect cells; GST; purchased SignalChem; host or cells: Sf-9 insect cells
T1 sequence (Q9UBN7 1-1215): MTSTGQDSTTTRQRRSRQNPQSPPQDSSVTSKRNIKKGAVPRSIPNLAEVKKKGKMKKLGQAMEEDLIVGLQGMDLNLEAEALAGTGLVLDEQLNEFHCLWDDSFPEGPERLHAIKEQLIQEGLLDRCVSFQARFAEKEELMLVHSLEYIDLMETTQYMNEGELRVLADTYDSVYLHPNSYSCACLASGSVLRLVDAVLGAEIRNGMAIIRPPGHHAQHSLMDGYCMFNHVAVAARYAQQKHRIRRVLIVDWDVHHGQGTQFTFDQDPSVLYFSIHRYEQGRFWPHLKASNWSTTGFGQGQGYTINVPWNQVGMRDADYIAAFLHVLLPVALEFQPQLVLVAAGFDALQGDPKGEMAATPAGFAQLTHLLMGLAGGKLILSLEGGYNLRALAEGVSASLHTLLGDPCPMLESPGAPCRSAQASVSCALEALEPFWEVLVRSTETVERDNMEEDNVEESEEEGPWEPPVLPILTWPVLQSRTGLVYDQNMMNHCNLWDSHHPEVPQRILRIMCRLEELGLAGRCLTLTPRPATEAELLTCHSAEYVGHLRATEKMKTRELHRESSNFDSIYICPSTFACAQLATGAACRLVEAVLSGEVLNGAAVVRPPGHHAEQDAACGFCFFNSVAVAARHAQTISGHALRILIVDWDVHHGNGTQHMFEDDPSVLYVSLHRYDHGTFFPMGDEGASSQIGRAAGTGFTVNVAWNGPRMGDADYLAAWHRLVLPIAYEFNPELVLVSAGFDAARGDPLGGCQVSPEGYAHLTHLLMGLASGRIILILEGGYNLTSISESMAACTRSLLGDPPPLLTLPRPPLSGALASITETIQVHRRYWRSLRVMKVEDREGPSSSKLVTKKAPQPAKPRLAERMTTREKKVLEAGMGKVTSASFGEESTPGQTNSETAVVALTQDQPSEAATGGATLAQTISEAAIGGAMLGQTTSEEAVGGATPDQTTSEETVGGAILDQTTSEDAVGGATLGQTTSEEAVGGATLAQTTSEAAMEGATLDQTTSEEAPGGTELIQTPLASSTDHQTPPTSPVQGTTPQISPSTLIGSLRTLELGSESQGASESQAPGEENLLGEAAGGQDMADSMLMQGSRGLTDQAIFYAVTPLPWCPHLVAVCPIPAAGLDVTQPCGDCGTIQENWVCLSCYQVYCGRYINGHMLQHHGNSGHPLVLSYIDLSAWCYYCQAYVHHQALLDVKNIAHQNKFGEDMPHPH
Type: biochemical
Procedure, shortened: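 Luminescence read-out after 20 min reaction with HDAC-Glo substrate-developer, following 60 min room-temperature preincubation of compound with Sf-9-expressed, GST-purified full-length enzyme. Inhibition is relative to no-enzyme wells set as 100%.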
`O=C1c2cc(-c3nnc(C(F)F)o3)cnc2CN1[C@@H]1COCC[C@H]1Oc1ccc(F)cc1` [Example 633, 1,5-anhydro-2,4-dideoxy-2-(3-(5-(difluoromethyl)-1,3,4-oxadiazol-2-yl)-5-oxo-5,7-dihydro-6H-pyrrolo[3,4-b]pyridin-6-yl)-3-O-(4-fluorophenyl)-threo-pentitol (Optical Isomer)] was tested, and the “HDAC6 inhibitory rate (%) (10 μM)” value was 100%. `O=C1c2cc(-c3nnc(C(F)F)o3)cnc2CN1[C@@H]1COCC[C@H]1Oc1cccc(F)c1` [Example 653, 1,5-anhydro-2,4-dideoxy-2-(3-(5-(difluoromethyl)-1,3,4-oxadiazol-2-yl)-5-oxo-5,7-dihydro-6H-pyrrolo[3,4-b]pyridin-6-yl)-3-O-(3-fluorophenyl)-threo-pentitol (optical isomer)] was tested, and the “HDAC6 inhibitory rate (%) (10 μM)” value was 99%.

Same assay, conditions: 10 μM; wells without enzyme = 100% inhibition; read-out: HDAC6 inhibitory rate (%) (10 μM)
`N#Cc1cccc(-c2ncccc2N2Cc3ccc(-c4nnc(C(F)F)o4)cc3C2=O)c1` [Example 391, 3-(3-(6-(5-(difluoromethyl)-1,3,4-oxadiazol-2-yl)-1-oxo-1,3-dihydro-2H-isoindol-2-yl)pyridin-2-yl) benzonitrile] showed an inhibition at 10 µM of 100%. Molecule `O=C1c2cc(-c3nnc(C(F)F)o3)cnc2CN1[C@@H]1CCCC[C@H]1n1cnc2ccccc21` [Example 502, 6-((1R,2R)-2-(1H-benzimidazol-1-yl)cyclohexyl)-3-(5-(difluoromethyl)-1,3,4-oxadiazol-2-yl)-6,7-dihydro-5H-pyrrolo[3,4-b]pyridin-5-one] has an inhibition at 10 µM of 100%. For `O=C(N[C@@H]1CCCC[C@H]1N1C(=O)c2ccc(-c3nnc(C(F)F)o3)cc2C1=O)OCc1ccccc1` [Example 142, benzyl ((1R,2R)-2-(5-(5-(difluoromethyl)-1,3,4-oxadiazol-2-yl)-1,3-dioxo-1,3-dihydro-2H-isoindol-2-yl)cyclohexyl)carbamate], the inhibition at 10 µM was 99%. With `O=C1c2cc(-c3nnc(C(F)F)o3)ccc2CN1[C@@H]1CC(F)(F)CC[C@H]1NC(=O)C(F)(F)C(F)F` [Example 636, N-((1R,2R)-2-(6-(5-(difluoromethyl)-1,3,4-oxadiazol-2-yl)-1-oxo-1,3-dihydro-2H-isoindol-2-yl)-4,4-difluorocyclohexyl)-2,2,3,3-tetrafluoropropanamide] the inhibition at 10 µM was 100%. `COc1ccc(N2Cc3ccc(-c4nnc(C(F)F)o4)cc3C2=O)c(Br)c1` [Example 477, 2-(2-bromo-4-methoxy-phenyl)-6-(5-(difluoro-methyl)-1,3,4-oxadiazol-2-yl) isoindolin-1-one] was tested, and the inhibition at 10 µM was 95%. Molecule `Cn1cc(-c2cc(F)cc(F)c2)c(N2Cc3ccc(-c4nnc(C(F)F)o4)cc3C2=O)n1` [Example 455, 6-(5-(difluoro-methyl)-1,3,4-oxadiazol-2-yl)-2-(4-(3,5-difluoro-phenyl)-1-methyl-1H-pyrazol-3-yl) isoindolin-1-one] has an inhibition at 10 µM of 102%. For `O=C1c2cc(-c3nnc(C(F)F)o3)ccc2CN1[C@@H]1CCCC[C@H]1N1CCC2(CC2)C1=O` [Example 53, 6-(5-(difluoromethyl)-1,3,4-oxadiazol-2-yl)-2-((1R,2R)-2-(4-oxo-5-azaspiro[2.4]hept-5-yl)cyclohexyl)isoindolin-1-one], the inhibition at 10 µM was 98%. Molecule `Cc1ccccc1-c1ccccc1N1Cc2ccc(-c3nnc(C(F)F)o3)cc2C1=O` [Example 311, 6-(5-(difluoromethyl)-1,3,4-oxadiazol-2-yl)-2-(2′-methyl-biphenyl-2-yl)isoindolin-1-one] has an inhibition at 10 µM of 99%. With `O=C1c2cc(-c3nnc(C(F)F)o3)ccc2CN1N1CCCCC1c1cncc(F)c1` (centres unmarked) [Example 602, 6-(5-(difluoromethyl)-1,3,4-oxadiazol-2-yl)-2-(2-(5-fluoropyridin-3-yl)piperidin-1-yl)isoindolin-1-one] the inhibition at 10 µM was 101%. For `O=C1c2cc(-c3nnc(C(F)F)o3)cnc2CN1c1ccc(F)cc1-c1cccc(Cl)c1` [Example 410, 6-(3′-chloro-5-fluoro-biphenyl-2-yl)-3-(5-(difluoro-methyl)-1,3,4-oxadiazol-2-yl)-6,7-dihydro-5H-pyrrolo [3,4-b]pyridin-5-one], the inhibition at 10 µM was 101%. `Cn1nc(C(F)(F)F)cc1-c1ccccc1N1Cc2ccc(-c3nnc(C(F)F)o3)cc2C1=O` [Example 320, 6-(5-(difluoromethyl)-1,3,4-oxadiazol-2-yl)-2-(2-(1-methyl-3-(trifluoromethyl)-1H-pyrazol-5-yl)phenyl)-isoindolin-1-one] gave an inhibition at 10 µM of 99%. `N[C@@H]1[C@H](N2Cc3ccc(-c4nnc(C(F)F)o4)cc3C2=O)CCCC1(F)F` [Example 621, 2-((1R,2R)-2-amino-3,3-difluorocyclohexyl)-6-(5-(difluoromethyl)-1,3,4-oxadiazol-2-yl)isoindolin-1-one] gave an inhibition at 10 µM of 88%. `Cn1cc(Br)c(N2Cc3ccc(-c4nnc(C(F)F)o4)cc3C2=O)n1` [Example 250, 2-(4-bromo-1-methyl-1H-pyrazol-3-yl)-6-(5-(difluoro-methyl)-1,3,4-oxadiazol-2-yl)isoindolin-1-one] showed an inhibition at 10 µM of 95%. `CC(=O)N[C@@H]1CCCC[C@H]1N1Cc2ccc(-c3nnc(C(F)F)o3)cc2C1=O` [Example 5, N-((1R,2R)-2-(6-(5-(difluoromethyl)-1,3,4-oxadiazol-2-yl)-1-oxo-1,3-dihydro-2H-isoindol-2-yl)cyclohexyl)acetamide] gave an inhibition at 10 µM of 100%. `CC(C)(C)OC(=O)NCC1(N2Cc3c(F)cc(-c4nnc(C(F)F)o4)cc3C2=O)CCCCC1` [Example 341, tert-butyl ((1-(6-(5-(difluoromethyl)-1,3,4-oxadiazol-2-yl)-4-fluoro-1-oxo-1,3-dihydro-2H-isoindol-2-yl)cyclohexyl)-methyl)carbamate] was tested, and the inhibition at 10 µM was 82%. Molecule `O=C1c2cc(-c3nnc(C(F)F)o3)ccc2CN1Cc1cc(C2CC2)on1` [Example 146, 2-((5-cyclopropyl-1,2-oxazol-3-yl)methyl)-6-(5-(difluoromethyl)-1,3,4-oxadiazol-2-yl)isoindolin-1-one] has an inhibition at 10 µM of 94%. Molecule `Cn1cccc1CN1Cc2ncc(-c3nnc(C(F)F)o3)cc2C1=O` [Example 438, 3-(5-(difluoro-methyl)-1,3,4-oxadiazol-2-yl)-6-((1-methyl-1H-pyrrol-2-yl)methyl)-6,7-dihydro-5H-pyrrolo [3,4-b]pyridin-5-one] has an inhibition at 10 µM of 97%. `O=C1c2cc(-c3nnc(C(F)F)o3)cc(F)c2CN1C[C@H]1CC(F)(F)CN1` [Example 354, 6-(5-(difluoromethyl)-1,3,4-oxadiazol-2-yl)-2-(((2R)-4,4-difluoropyrrolidin-2-yl)-methyl)-4-fluoroisoindolin-1-one] showed an inhibition at 10 µM of 92%. Molecule `O=C(N[C@@H]1CCCC[C@H]1N1Cc2ccc(-c3nnc(C(F)F)o3)cc2C1=O)C(F)F` [Example 28, N-((1R,2R)-2-(6-(5-(difluoromethyl)-1,3,4-oxadiazol-2-yl)-1-oxo-1,3-dihydro-2H-isoindol-2-yl)cyclohexyl)-2,2-difluoroacetamide] has an inhibition at 10 µM of 100%. Molecule `CC(C)(C)OC(=O)N[C@@H]1CCCC[C@H]1N1Cc2ccc(-c3nnc(C(F)F)o3)cc2C1=O` [Example 3, tert-butyl ((1R,2R)-2-(6-(5-(difluoromethyl)-1,3,4-oxadiazol-2-yl)-1-oxo-1,3-dihydro-2H-isoindol-2-yl)cyclohexyl)carbamate] has an inhibition at 10 µM of 99%. With `O=C1c2cc(-c3nnc(C(F)F)o3)ccc2CN1[C@@H]1CCCC[C@H]1c1ncco1` (racemic) [Example 549, 6-(5-(difluoromethyl)-1,3,4-oxadiazol-2-yl)-2-((1RS,2RS)-2-(1,3-oxazol-2-yl)cyclohexyl)isoindolin-1-one] the inhibition at 10 µM was 100%.
